# Measurements reported in US20160039897A1, “COMPOUNDS AND METHODS FOR TREATING OBESITY AND CONTROLLING WEIGHT” (THE UNIVERSITY OF NORTH CAROLINA AT CHAPEL HILL, priority 2013, published 2016).
# Legend:
# [1] = test system: IGFBP-2−/− mice; assay: Body weight gain and food intake, 12 weeks of peptide treatment; format: in vivo, mouse; conditions: pegylated peptide 50 μg IP 3 times/week; for body weight gain (in words): HBD peptides after 8 weeks vs control peptide, control peptide over 12 weeks vs wild type
# Description: Generation of the B6.129-Igfbp2^tmlJep, referred to as Igfbp2^−/− mice, has been described previously (DeMambro et al., 2008; Danno et al., 1992). The mice were backcrossed onto C57BL/6J background for at least 10 generations. Mating pairs were provided from Maine Medical Center Research Institute (Scarborough, Me.). Igfbp2^+/+ mice were C57BL/6J controls. All in vivo and ex vivo experimental studies were performed using male mice. The animal study protocol was reviewed and approved by the Institutional Animal Care and Use Committee of University of North Carolina at Chapel Hill. Mice were assigned to one of four treatment groups. 1) Peg HBD1 peptide: Igfbp2^−/− mice were administered 50 μg of the pegylated HBD1 peptide in 0.1 mL PBS (n=9); 2) Peg HBD2 peptide: Igfbp2^−/− mice were administered 50 μg of the pegylated HBD2 peptide in 0.1 mL PBS (n=10); 3) control peptide: Igfbp2^−/− mice were given 50 μg of the HBD1 control peptide in 0.1 mL PBS (n=18); 4) WT: Igfbp2^+/+ mice were given 0.1 mL of PBS (n=9). All injections were administered IP 3 times weekly from 10-22 weeks of age. All mice were provided with free access to 2018 Teklad global rodent diet (Harlan, Dublin, Va.), containing 18.6% protein, 6.2% fat and 3.5% crude fiber. Food consumption and the weights of the mice were determined weekly.
# To investigate the effect of IGFBP-2 HBDs on weight gain and fat mass in vivo, the peptides containing HBD sequences were administered to IGFBP-2−/− mice. […] To extend the half life of the peptides and increase their resistance to proteolysis in vivo, all three peptides were pegylated. It has been shown that 50 μg of HBD1 peptide administered via intraperitoneal (IP) injection 5 times per week for 3 weeks was effective in promoting bone growth in IGFBP-2^−/− male mice (17). […] In the second phase the effects of the HBD2 and control peptides were determined. […] To exclude the possibility that differences in weight gain were caused by different food intake, food consumption was measured weekly.
# Mice. […] Food consumption and the weights of the mice were determined weekly. […]
# [2] = test system: IGFBP-2−/− mice; assay: Inguinal and visceral fat pad, liver and heart weights at sacrifice; format: in vivo, mouse; conditions: after 12 weeks; for Inguinal fat / Visceral fat: pegylated peptide 50 μg IP 3 times/week, mean±SE
# Description: Body fat and lean muscle mass was measured at weeks 0 and 12 of treatment by magnetic resonance imaging analysis (EchoMRI-100, Echo Medical Systems, Houston, Tex.), a technique that measures fat mass and lean mass in unanesthetized animals (Kelly S A, et. al., 2010). After completion of 12 weeks of treatment, the mice were sacrificed. Blood was collected by cardiac puncture and allowed to sit for 4 hours before centrifuging at 3500 rpm×15 min. The serum was aspirated and stored at −20° C. until analysis. Abdominal inguinal and visceral fat pads were carefully dissected from each animal according to defined anatomical landmarks. All subcutaneous fat between the lower part of the rib cage and the upper thigh was considered abdominal subcutaneous inguinal fat, whereas all fat found along the mesentery starting at the lesser curvature of the stomach and ending at the sigmoid colon was considered visceral fat. Fat depots were blotted dry prior to weighing. The right inguinal fat pad was dissected separately and the triglyceride content of this tissue was determined by a colorimetric analysis (Pointe Scientific, Canton, Mich.), as previously described (Dann H, Kimura S 1992). Serum adiponectin and leptin were measured by ELISA following manufacturer's instructions (Millipore, Billerica, Mass.).
# Body composition and serum adipokine measurement. Body fat and lean mass were measured at weeks 0 and 12 of treatment by magnetic resonance imaging analysis (EchoMRI-100, Echo Medical Systems, Houston, Tex.), using unanesthetized animals. After 12 weeks of treatment, the mice were sacrificed and blood was collected by cardiac puncture and centrifuged at 3500 rpm×15 min. The serum was stored at −20° C. Abdominal inguinal and visceral fat pads were dissected from each animal according to defined anatomical landmarks. Subcutaneous fat between the rib cage and the upper thigh was termed subcutaneous inguinal fat, whereas all fat from the lesser curvature of the stomach to the sigmoid colon was termed visceral fat. Fat depots were blotted dry prior to weighing. The right inguinal fat pad was dissected separately and the triglyceride content of this tissue was determined by a calorimetric analysis (Pointe Scientific, Canton, Mich. Serum adiponectin and leptin were measured by ELISA following manufacturer's instructions (Millipore, Billerica, Mass.).
Sequence,body weight gain (in words) [1],weight gain compared to mice that received HBD1 peptide ([1]; after 10 weeks),reduction of inguinal fat pad (percentage of body weight) compared to control peptide [2],reduction of visceral fat (percentage of body weight) compared to control peptide [2] [%],Inguinal fat [2],Visceral fat [2] [g]
KHGLYNLKQCKMSLNGQR [HBD2 peptide],gained significantly less weight,significantly less,32±7%,44±7,0.23 ± 0.02 g,0.25 ± 0.02
KHLSLEEPKKLRP [HBD1 peptide],gained significantly less weight,–,had no effect,24±5,had no effect,0.34 ± 0.01
